Source: publication PMC3230782 (Peptides, 2011)

Tests used:
[1] = test system: estrogen-stimulated growth of the immature mouse uterus; assay: immature mouse uterine growth inhibition assay; assay type: in vivo, mouse (Swiss Webster female); settings: for effect on the growth inhibition activity of AFPep when combined: combination with AFPep (Figure 2A, 2C); for dose-response behaviour of inhibition of estrogen-stimulated uterine growth: peptide alone, range of doses i.p. (Figure 1)
[2] = earlier work; 30 (EMTPVNPG); 29 (AFPep); cited from earlier work
[3] = test system: estrogen-stimulated growth of the immature mouse uterus; settings: 30 (EMTPVNPG), 29 (AFPep); cited from earlier work

| Substance | effect on the growth inhibition activity of AFPep when combined [1] | dose-response behaviour of inhibition of estrogen-stimulated uterine growth [1] | shelf life [2] | dose-response behaviour in anti-estrotrophic assay (earlier work) [3] |
| --- | --- | --- | --- | --- |
| cyclo[EKTOVNOGN] FS (lariat or depsi) | decreased the activity of AFPep | little activity at any dose | – | – |
| cyclo[EKTOVGOGN] FS (lariat or depsi) | enhanced the activity of AFPep | no activity at any dose | – | – |
| EMTPVNPG | – | – | very short shelf life | biphasic dose-response curve |
